Measured values reported in patent US20240150368A1, “ULK INHIBITORS AND METHODS OF USE THEREOF” (Deciphera Pharmaceuticals, LLC, priority 2022, published 2024).

How the values were obtained:
[1] = test system: ULK kinase substrate ATG13 (pS318-ATG13) in A549 (KRAS mutant) cells; assay: pATG13 levels of mutant KRas A549 cells after treatment with ULK inhibitors in combination with trametinib (ELISA); type: cell-based, human
Summary of the method: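 A549 cells grown overnight were treated with a test-compound dose response plus trametinib at 250 nM final (or DMSO) overnight at 37° C. Lysates were assayed by total-ATG13 capture and biotinylated pS318-ATG13 detection ELISA (450 nm minus 540 nm background); % phosphorylation versus controls gave IC50 values.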

ULK1 kinase = biological target: T1, ULK1 kinase (Homo sapiens, UniProt O75385, E37A/K38A); assay: Biochemical assay for ULK1 (coupled pyruvate kinase/lactate dehydrogenase assay); conditions: 1 mM ATP, 0.1 nM ULK1; read-out: ULK1 (inhibition of biochemical activity), IC50
T1 construct: (residues 1-283; ID NO: 1); purchased Beryllium
T1 sequence (O75385 1-283 E37A/K38A): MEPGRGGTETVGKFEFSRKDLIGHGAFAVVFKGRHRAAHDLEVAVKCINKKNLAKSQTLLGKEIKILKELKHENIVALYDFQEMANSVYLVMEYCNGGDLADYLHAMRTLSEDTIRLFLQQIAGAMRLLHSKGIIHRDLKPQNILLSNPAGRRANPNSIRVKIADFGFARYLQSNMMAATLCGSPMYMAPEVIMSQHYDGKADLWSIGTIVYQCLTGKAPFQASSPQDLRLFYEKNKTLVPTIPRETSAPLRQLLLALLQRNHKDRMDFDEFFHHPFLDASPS
Summary of the method: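 IC50 values were fitted to percent inhibition, normalised with no-compound and known-inhibitor controls, using rates from 2–3 h of a 6 h read at 30 °C. ADP was coupled through pyruvate kinase/lactate dehydrogenase to NADH loss at 340 nm.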

| IC50 [1] [nM] | IC50 (ULK1 kinase) [nM] | Structure (SMILES) |
| --- | --- | --- |
| 100 to 300 | ≤ 10 | CC/C(Nc1cnn(C2CCN(C(C)C)CC2)c1)=C1/C(=O)Nc2ccc(C(=O)NC[C@H]3CCCO3)cc21 [Example 1, (R,Z)-3-(1-((1-(1-isopropylpiperidin-4-yl)-1H-pyrazol-4-yl)amino)propylidene)-2-oxo-N-((tetrahydrofuran-2-yl)methyl)indoline-5-carboxamide] |
| ≤ 100 | 10 to 100 | CC/C(Nc1ccc(N2C[C@H]3CN(C)C[C@H]3C2)cc1)=C1/C(=O)Nc2ccc(C(=O)NCC(C)C)cc21 [Example 63] |
| ≤ 100 | 10 to 100 | CC/C(Nc1ccc(N2C[C@H]3CN(C)C[C@H]3C2)cc1)=C1/C(=O)Nc2ccc(C(=O)NC[C@H]3CCCO3)cc21 [Example 64] |
| ≤ 100 | ≤ 10 | CC/C(Nc1ccc(N2CC3(CN(C)C3)C2)cc1)=C1/C(=O)Nc2ccc(C(=O)NCC(C)C)cc21 [Example 65] |
| ≤ 100 | ≤ 10 | CC/C(Nc1ccc(N2CC3(CN(C)C3)C2)cc1)=C1/C(=O)Nc2ccc(C(=O)NC[C@H]3CCCO3)cc21 [Example 66] |
| ≤ 100 | ≤ 10 | CC/C(Nc1ccc(N2CC3CC2CN3C)cc1)=C1/C(=O)Nc2ccc(C(=O)NCC(C)C)cc21 (stereo not drawn) [Example 69] |
| ≤ 100 | ≤ 10 | CC/C(Nc1ccc(N2CC3CC2CN3C)cc1)=C1/C(=O)Nc2ccc(C(=O)NC[C@H]3CCCO3)cc21 (stereo partly drawn) [Example 70] |
| ≤ 100 | ≤ 10 | CC/C(Nc1ccc(N2CC3CC2CN3C)cc1)=C1/C(=O)Nc2ccc(C(=O)NCC(F)(F)F)cc21 (stereo not drawn) [Example 71] |
| 100 to 300 | 10 to 100 | CC/C(Nc1ccc(N2CCN(C)CC2)nc1)=C1/C(=O)Nc2ccc(C(=O)NCC(F)(F)F)cc21 [Example 74] |
| 100 to 300 | ≤ 10 | CC/C(Nc1ccc(N2CCN(C)CC2)cn1)=C1/C(=O)Nc2ccc(C(=O)NCC(F)(F)F)cc21 [Example 75] |
| 100 to 300 | ≤ 10 | CC/C(Nc1cnn(C)c1)=C1/C(=O)Nc2ccc(C(=O)NCC(F)(F)F)cc21 [Example 77] |
| 300 to 600 | 10 to 100 | CC/C(Nc1ccc(-c2nc(C)no2)cc1)=C1/C(=O)Nc2ccc(C(=O)NCC(F)(F)F)cc21 [Example 78] |
| 300 to 600 | 10 to 100 | CC/C(Nc1ccc(-c2cn(C)nn2)cc1)=C1/C(=O)Nc2ccc(C(=O)NCC(F)(F)F)cc21 [Example 79] |
| ≤ 100 | ≤ 10 | CC/C(Nc1cnn(C2CCN(C(C)C)CC2)c1)=C1/C(=O)Nc2ccc(C(=O)NC[C@H]3CC(F)(F)CO3)cc21 [Example 80] |
| 300 to 600 | ≤ 10 | CC/C(Nc1cnn(C2CCN(C(C)C)CC2)c1)=C1/C(=O)Nc2ccc(C(=O)NCCOC(F)(F)F)cc21 [Example 82] |
| ≤ 100 | ≤ 10 | CC/C(Nc1cnn(C2CCN(C(C)C)CC2)c1)=C1/C(=O)Nc2ccc(C(=O)NC[C@H]3CCCCO3)cc21 [Example 83] |
| > 600 | ≤ 10 | CC/C(Nc1cnn(C2CC3(C2)CN(C)C3)c1)=C1/C(=O)Nc2ccc(C(=O)NCC(F)(F)F)cc21 [Example 84] |
| 300 to 600 | 10 to 100 | CC/C(Nc1ccc(N2CC3(COC3)C2)cc1)=C1/C(=O)Nc2ccc(C(=O)NCC(F)(F)F)cc21 [Example 85] |
| 300 to 600 | ≤ 10 | CC/C(Nc1cnn(C2CN(C)C2)c1)=C1/C(=O)Nc2ccc(C(=O)NCC(F)(F)F)cc21 [Example 86] |
| 300 to 600 | 10 to 100 | CC/C(Nc1cnn(C2CN(C)C2)c1)=C1/C(=O)Nc2ccc(C(=O)NCC(C)C)cc21 [Example 87] |
| 100 to 300 | ≤ 10 | CC/C(Nc1cnn(C2CN(C3CCC3)C2)c1)=C1/C(=O)Nc2ccc(C(=O)NC[C@H]3CCCO3)cc21 [Example 88] |
| > 600 | 10 to 100 | CC/C(Nc1cnn(C2CN(C)C2)c1)=C1/C(=O)Nc2ccc(C(=O)NCCOC)cc21 [Example 89] |
| 300 to 600 | ≤ 10 | CC/C(Nc1cnn(C2CN(CC)C2)c1)=C1/C(=O)Nc2ccc(C(=O)NC[C@H]3CCCO3)cc21 [Example 90] |
| 100 to 300 | ≤ 10 | CC/C(Nc1cnn(C2CN(C(C)C)C2)c1)=C1/C(=O)Nc2ccc(C(=O)NC[C@H]3CCCO3)cc21 [Example 91] |
| ≤ 100 | 100 to 500 | CC/C(Nc1ccc(N2CCN(C(C)C)CC2)cn1)=C1/C(=O)Nc2cc(F)c(C(=O)NCC(F)(F)F)cc21 [Example 92] |

| Structure (SMILES) | IC50 [1] [nM] | IC50 (ULK1 kinase) [nM] |
| --- | --- | --- |
| CC/C(Nc1ccc(N2CC3CC(C2)N3C)cc1)=C1/C(=O)Nc2ccc(C(=O)NCC(C)C)cc21 [Example 67] | ≤ 100 | ≤ 10 |
| CC/C(Nc1ccc(N2CC3CC(C2)N3C)cc1)=C1/C(=O)Nc2ccc(C(=O)NC[C@H]3CCCO3)cc21 [Example 68] | ≤ 100 | ≤ 10 |
